Reference: US8211445B2, “PSM peptides as vaccine targets against methicillin-resistant Staphylococcus” (The United States of America, as represented by the …, priority 2007, dated 2012)

What was measured:
[1] = Immunization of mice with synthetic PSM peptides, PSM-specific antibodies by ELISA; assay type: in vivo, mice (BALB/c); details: 50 μg s.c. with CFA, booster with IFA
Procedure: In order to determine the immunogenicity of synthetic PSM peptides, mice (BALB/c, female, 6-8 weeks) were injected subcutaneously with 50 μg (100 μL) of each PSM peptide in sterile PBS emulsified with complete Freund's adjuvant (CFA) for primary immunization. A booster injection containing incomplete Freund's adjuvant (IFA) instead of CFA was given to the animals 14 days after the primary immunization. The control group of animals received injections of sterile PBS and adjuvants only. Three blood withdrawals were performed on each mouse. The first two blood samples were collected via retro-orbital route immediately before primary injection and before booster injection, respectively. All animals were sacrificed 21 days after booster injection for the terminal blood samples.
PSM-specific antibodies in mouse serum were determined by ELISA assays. Microtiter plates (Nunc 96-well flat-bottom MaxiSorp plates) were coated with 20 μg/ml of each synthetic PSM peptides in PBS plus 0.05% NaN3, and incubated overnight at 4° C. The plates were washed with PBS containing 0.05% Tween-20, and blocked for 1 hour at room temperature with 1% BSA (Sigma) and 0.05% NaN3 in PBS. Serum samples were diluted in assay diluent (Tris-buffered saline containing 0.1% BSA and 0.05% Tween-20, pH 7.2), and added to the washed wells at 100 μl/well for an incubation of 2 hours at room temperature. Plates were washed again and HRP-labeled goat anti-mouse IgG (R&D Systems) and goat anti-mouse IgM (Jackson ImmunoResearch Laboratory) were diluted in assay diluent and added to the plates at 100 μl/well for an incubation of 1 hour at room temperature in order to detect PSM specific mouse IgG and IgM, respectively. Plates were washed again and a substrate solution containing equal volume of Tetramethylbenzidine and H2O2 was added to the plates at 100 μl/well for color development. The reaction was terminated by adding 50 μl of 1 M H2SO4 to each well, and optical density (O.D.) was measured at 450 nm using an ELISA plate reader.

[2] = test system: human neutrophils; assay: Neutrophil chemotaxis (transwell); assay type: cell-based; details: PSM-mec vs PSMα3; range similar to other α-type PSMs, in general higher than β-type PSMs (FIG. 21A)
Procedure: Neutrophils were subjected to a brief hypotonic shock with pyrogen-free water (Sigma), washed, and suspended at 5×10^6 cells/ml in HBSS containing 0.05% human serum albumin (HSA; CLB). Chemotaxis of neutrophils was determined by using fluorescently-labeled neutrophils that migrated through a membrane fitted into an insert of a 24-well microtiter plate transwell system (Costar) containing a prewetted 3-μm-pore-size polycarbonate filter as described (de Haas et al., J Exp Med 199, 687-95, 2004). For measurement of calcium ion fluxes, 5×10^6 neutrophils/ml were loaded with 2 μM Fluo-3-AM (Molecular Probes) in RPMI containing 0.05% HSA (RPMI-HSA) for 20 minutes at room temperature under agitation, washed twice with buffer, and resuspended in RPMI-HSA at 10^6 cells/ml. Calcium fluxes were analyzed with a FACScalibur (Becton Dickinson).
Neutrophils were subjected to a brief hypotonic shock with pyrogen-free water (Sigma), washed, and suspended at 5×10^6 cells/ml in HBSS containing 0.05% human serum albumin (HAS; CLB). Chemotaxis of neutrophils was determined by using fluorescently-labeled neutrophils that migrated through a membrane fitted into an insert of a 24-well microtiter plate transwell system (Costar) containing a prewetted 3-μm-pore-size polycarbonate filter. […] Calcium fluxes were analyzed with a FACScalibur (Becton Dickinson). […]

[3] = test system: human neutrophils; assay: Interaction of synthetic PSMs with human neutrophils (overall pro-inflammatory activity); assay type: cell-based; details: synthetic PSM peptides, comparison among PSMs
Procedure: Neutrophils were subjected to a brief hypotonic shock with pyrogen-free water (Sigma), washed, and suspended at 5×10^6 cells/ml in HBSS containing 0.05% human serum albumin (HSA; CLB). Chemotaxis of neutrophils was determined by using fluorescently-labeled neutrophils that migrated through a membrane fitted into an insert of a 24-well microtiter plate transwell system (Costar) containing a prewetted 3-μm-pore-size polycarbonate filter as described (de Haas et al., J Exp Med 199, 687-95, 2004). […] Calcium fluxes were analyzed with a FACScalibur (Becton Dickinson).
Priming of PMNs by synthetic PSMs was determined by increased surface expression of CD11b and gp91phox (granule exocytosis). […] PMNs were analyzed on a FACSCalibur flow cytometer (Becton Dickinson) and dead cells were excluded with a single gate. Percent positive neutrophils were determined with a marker defined by the boundary of the isotype-matched control antibody.
After isolation and washing, PMN or PBMC were resuspended in RPMI 1640 medium (Sigma) supplemented with 10% human serum, 2 mM L-glutamine, 100 U/ml penicillin, 100 μg/ml streptomycin, 2 mM sodium pyruvate, and 10 mM HEPES. […] After removal of supernatant, cells were resuspended in fresh culture medium, counted, and distributed into a 96-well cell culture plate at 100 μl and 2.5×10^5 cells per well. […]

fMEFVAKLFKFFKDLLGKFLGNN [PSMα3]
specific antibody production in vivo ([1]; N-formylated synthetic PSM peptides, BALB/c mice (FIG. 11)): most robust antibody production
specific antibody production in vivo ([1]; non N-formylated synthetic PSM peptides, BALB/c mice (FIG. 12)): strongest response
chemotactic activities [2]: most potent
pro-inflammatory activity [3]: most pronounced pro-inflammatory activity
